Measurements: the OligoGym collection
Bases are written 5' to 3'; sugars and linkages follow in the same order, as letters with counts (s phosphorothioate, o phosphodiester; PS: all linkages phosphorothioate). The collection does not say whether C is 5-methylated. l = locked nucleic acid (LNA); d = 2'-deoxy (DNA)

Target: not listed separately
Experiment: rat primary cortical neurons, FLIPR, 25 uM ASO

Sequence	calcium oscillation score
TACCATACAATAACTTTAAC (sugars l3 d14 l3, PS)	76.5 % of control
AAATCTATAATAACCACCAC (sugars l3 d14 l3, PS)	80.2 % of control
TCCACTAACCAATATAAC (sugars l3 d12 l3, PS)	76.5 % of control
TAACTAACTTAACTCAAC (sugars l3 d12 l3, PS)	74.7 % of control
CCAAATCTTATAATAACTAC (sugars ldlllddddddddddlldll, PS)	80.2 % of control
CAAACTTATATCTTTCAAAC (sugars l4 d12 l4, PS)	78.3 % of control
TACTCAAATATAACACCAAC (sugars l3 d14 l3, PS)	85.6 % of control
CTAATATTATAACCATCAAC (sugars l3 d14 l3, PS)	82 % of control
CAACCAACAATACTTTAAAC (sugars l4 d12 l4, PS)	85.6 % of control
CACAATCTAACTATTAAC (sugars l3 d12 l3, PS)	76.5 % of control
CACAACTATTAAATACCAAC (sugars l3 d14 l3, PS)	83.8 % of control
CAAATCATCCATCTATAAAC (sugars l4 d12 l4, PS)	88.8 % of control
CTAAATCCTTAATATCAAAC (sugars l4 d12 l4, PS)	79.3 % of control

Target: STC1
Experiment: rat primary cortical neurons, FLIPR, 25 uM ASO

Sequence	calcium oscillation score
CTAATTATATATTTCCAC (sugars l4 d10 l4, PS)	119 % of control
ACATTCAAGCCTTTCC (sugars l4 d10 l2, PS)	81.6 % of control
TTACCCAAATACACACATA (sugars l3 d12 l4, PS)	119 % of control
TATTATTCTTCTGTTTC (sugars l3 d10 l4, PS)	53.4 % of control
AGCTATTTATATTCCAC (sugars l2 d11 l4, PS)	122 % of control
TCAATATTATTCTTCTG (sugars l2 d11 l4, PS)	35.4 % of control
TAGTTATTCCATTCCCA (sugars l2 d13 l2, PS)	99.3 % of control
CTATTTATATTCCACAG (sugars l4 d11 l2, PS)	69.8 % of control
ACCTGTAACTACTTCC (sugars l3 d11 l2, PS)	100 % of control
TTACCCAAATACACACA (sugars l4 d9 l4, PS)	143 % of control
ATCAATATTATTCTTCT (sugars l5 d8 l4, PS)	122 % of control
CAACATTCAAGCCTTT (sugars l5 d7 l4, PS)	89.1 % of control
TTACAAGTCATTTCCCT (sugars l4 d11 l2, PS)	91.8 % of control
TTACCCAAATACACACAT (sugars l4 d10 l4, PS)	137 % of control
ATTATTCTTCTGTTTCC (sugars l2 d11 l4, PS)	67.6 % of control
TATTTATATTCCACAGT (sugars l3 d10 l4, PS)	107 % of control
TAGTTATTCCATTCCC (sugars l2 d12 l2, PS)	92.3 % of control
AACATTCAAGCCTTTC (sugars l3 d9 l4, PS)	109 % of control
ATAGTTATTCCATTCC (sugars l4 d10 l2, PS)	105 % of control

Target: Tau
Experiment: rat primary cortical neurons, FLIPR, 25 uM ASO

Sequence	calcium oscillation score
ACTTTATCCCTCCATGAT (sugars l3 d11 l4, PS)	47.4 % of control
TCTTAGTCATCTTCCCT (sugars l3 d12 l2, PS)	68.6 % of control
CCTTAAAGCTCCAACA (sugars l4 d10 l2, PS)	94.6 % of control
TTACCAATTATCTTTAAATT (sugars l4 d12 l4, PS)	61.9 % of control
TCAGATTTTACTTCCACC (sugars l2 d13 l3, PS)	57.5 % of control
ACAAACATCTAAACACCTCA (sugars l2 d14 l4, PS)	72.6 % of control
TCCATTCCCTCCAGAACCAT (sugars l3 d14 l3, PS)	61.9 % of control
CCCATCAATTTGGAAAGATG (sugars l3 d14 l3, PS)	58.1 % of control
GCCACCTCCTGGTTTATGAT (sugars l3 d14 l3, PS)	31.6 % of control
CCCTTCAACATCAGCCA (sugars l2 d13 l2, PS)	47.6 % of control
AATAGCAAACAGGATA (sugars l3 d10 l3, PS)	82.4 % of control
GTTTATGATGGATGTTGCCT (sugars l3 d14 l3, PS)	3.32 % of control
CATATTCTTCCCTTAATA (sugars l3 d13 l2, PS)	81.1 % of control
AAGGTCAGCTTGTGGG (sugars l3 d10 l3, PS)	11.4 % of control
GGGAGGCAGACACCTC (sugars l3 d10 l3, PS)	42.8 % of control
TCTTTATTAACACTCCACA (sugars l4 d13 l2, PS)	62.5 % of control
TATTTCCAAATTCACTTTTA (sugars lllddldddddddddldlll, PS)	147 % of control
CACCCTAAACCATGAT (sugars l3 d10 l3, PS)	71.4 % of control
TACATGCGTCCTTT (sugars l3 d8 l3, PS)	91.8 % of control
CTGCCGGTGGAGGAGA (sugars l3 d10 l3, PS)	0 % of control
TTTTAACTCCCAACTCTTT (sugars l2 d13 l4, PS)	99.7 % of control
TAATCCTGTGCTTC (sugars l3 d8 l3, PS)	2.3 % of control
TTTTTTAACTCCCAACTCTT (sugars l4 d14 l2, PS)	98.3 % of control
ACATGCTAATCAATAC (sugars l4 d8 l4, PS)	57.8 % of control

Sequence	calcium oscillation score
CATTTTACTAAAACGC (sugars l4 d8 l4, PS)	91.6 % of control
CTTTATTTCCAAATTCACT (sugars l4 d10 l1 d2 l2, PS)	125 % of control
ACAGATATTCATTCCCT (sugars l4 d11 l2, PS)	44.2 % of control
CACCCACTTTCCTAATTC (sugars l3 d13 l2, PS)	65.6 % of control
GGATGTTGCCTAATGAGCCA (sugars l3 d14 l3, PS)	0 % of control
TTATTTCCAAATTCACTTTT (sugars l2 d16 l2, PS)	182 % of control
CATCGCTTCCAGTC (sugars l3 d8 l3, PS)	116 % of control
TGAAGTCCCGAGCCAAAGCC (sugars l3 d14 l3, PS)	0 % of control
TTGGAGTGCTCTTAGCATCA (sugars l3 d14 l3, PS)	7.78 % of control
TGTAATTTTCCCTACAT (sugars l3 d11 l3, PS)	91.3 % of control
CTCAAACTTAAATTTATT (sugars l4 d10 l4, PS)	82.4 % of control
TTAAGTGATTAACCAATTAA (sugars l3 d14 l3, PS)	40.1 % of control
ACCAATTAACCGAACT (sugars l3 d10 l3, PS)	159 % of control
AAAATACTCCTCCCTTA (sugars l3 d10 l4, PS)	67.1 % of control
AATCCCAGTTTCCCCCA (sugars l4 d11 l2, PS)	65.6 % of control
TTACACCACACTGTCG (sugars l3 d10 l3, PS)	32.1 % of control
AATTCACACAACAAACTAT (sugars l4 d11 l4, PS)	74.5 % of control
AAGCCCATTTACAATTC (sugars l4 d10 l3, PS)	81.1 % of control
TTCGAAACCAAGGTCCCACC (sugars l3 d14 l3, PS)	27.5 % of control
CAACTGGTTTGTAGACTATT (sugars l3 d14 l3, PS)	6.64 % of control
ACTTATCTATCCATCTATT (sugars l3 d12 l4, PS)	55.8 % of control
CCCAGACCATCAATTTC (sugars l2 d12 l3, PS)	82.2 % of control
TCAGCTAGCGTGGCGA (sugars l3 d10 l3, PS)	75.9 % of control
